Key:
[1] = molecular target: JAK1 (recombinant purified GST-tagged catalytic domain) (Homo sapiens (Human), UniProt P23458); test: Jak Biochemical HTRF Assay (JAK1); conditions: [ATP] 31.8 μM
Procedure, shortened: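 GST-tagged human catalytic domains of JAK1 or JAK2 phosphorylated a biotinylated peptide substrate for 120 min at room temperature after ATP addition. Reaction quenched with EDTA stop buffer containing streptavidin-Dylight 650 and Eu-pY20 antibody; HTRF 665/615 nm ratio normalized to untreated controls, IC50 from 4-parameter fit.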

[2] = molecular target: JAK2 (recombinant purified GST-tagged catalytic domain) (Homo sapiens (Human), UniProt O60674); test: Jak Biochemical HTRF Assay (JAK2); conditions: [ATP] 8.5 μM
JAK2 (recombinant purified GST-tagged catalytic domain), sequence (O60674 849-1124): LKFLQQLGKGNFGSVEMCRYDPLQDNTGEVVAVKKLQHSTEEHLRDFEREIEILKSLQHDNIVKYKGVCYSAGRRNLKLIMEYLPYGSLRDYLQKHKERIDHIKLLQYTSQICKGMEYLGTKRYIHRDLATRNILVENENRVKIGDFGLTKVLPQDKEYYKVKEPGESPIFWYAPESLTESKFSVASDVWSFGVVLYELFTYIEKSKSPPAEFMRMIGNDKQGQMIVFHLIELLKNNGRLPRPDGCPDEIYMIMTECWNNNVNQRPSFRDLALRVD

JAK1 (recombinant purified GST-tagged catalytic domain), sequence (P23458 875-1153): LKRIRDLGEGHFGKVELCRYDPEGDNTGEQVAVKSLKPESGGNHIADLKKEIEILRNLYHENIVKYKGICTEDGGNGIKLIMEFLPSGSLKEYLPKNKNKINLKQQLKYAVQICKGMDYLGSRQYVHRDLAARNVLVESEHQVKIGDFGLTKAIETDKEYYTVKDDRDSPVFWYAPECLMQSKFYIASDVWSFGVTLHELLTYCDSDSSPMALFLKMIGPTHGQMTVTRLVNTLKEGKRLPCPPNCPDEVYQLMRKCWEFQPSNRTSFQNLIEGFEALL

Compound | IC50 [1] [nM] | IC50 [2] [nM]
N#CC[C@]1(n2nc(Nc3ccc(Cl)c(F)c3)c3c(=O)[nH]ccc32)CC[C@@H](NC2CCCCC2)CC1 [Example 18-22, Cis 2-(1-(3-((4-chloro-3-fluorophenyl)amino)-4-oxo-4,5-dihydro-1H-pyrazolo[4,3-c]pyridin-1-yl)-4-(cyclohexylamino)cyclohexyl)acetonitrile] | 20.5 | > 1500
COC1CN([C@H]2CC[C@@](CC#N)(n3nc(Nc4ccc(Cl)c(F)c4)c4c(=O)[nH]ccc43)CC2)C1 [Example 18-23, Cis 2-(1-(3-((4-chloro-3-fluorophenyl)amino)-4-oxo-4,5-dihydro-1H-pyrazolo[4,3-c]pyridin-1-yl)-4-(3-methoxyazetidin-1-yl)cyclohexyl)acetonitrile] | 125 | > 1500
COC1CN([C@H]2CC[C@](CC#N)(n3nc(Nc4ccc(Cl)c(F)c4)c4c(=O)[nH]ccc43)CC2)C1 [Example 18-24, Trans 2-(1-(3-((4-chloro-3-fluorophenyl)amino)-4-oxo-4,5-dihydro-1H-pyrazolo[4,3-c]pyridin-1-yl)-4-(3-methoxyazetidin-1-yl)cyclohexyl)acetonitrile] | 0.09 | 5.87
N#CC[C@]1(n2nc(Nc3ccc(Cl)c(F)c3)c3c(=O)[nH]ccc32)CC[C@@H](Nc2ccccc2)CC1 [Example 18-25, Cis 2-(1-(3-((4-chloro-3-fluorophenyl)amino)-4-oxo-4,5-dihydro-1H-pyrazolo[4,3-c]pyridin-1-yl)-4-(phenylamino)cyclohexyl)acetonitrile] | 70.2 | > 1500
N#CC[C@]1(n2nc(Nc3ccc(Cl)c(F)c3)c3c(=O)[nH]ccc32)CC[C@H](Nc2ccccc2)CC1 [Example 18-26, Trans 2-(1-(3-((4-chloro-3-fluorophenyl)amino)-4-oxo-4,5-dihydro-1H-pyrazolo[4,3-c]pyridin-1-yl)-4-(phenylamino)cyclohexyl)acetonitrile] | 2.48 | 54.7
N#CC[C@]1(n2nc(Nc3ccc(S(=O)(=O)C(F)F)cc3)c3c(=O)[nH]ccc32)CC[C@@H](N2CC(F)C2)CC1 [Example 18-27, Cis 2-(1-(3-((4-((difluoromethyl)sulfonyl)phenyl)amino)-4-oxo-4,5-dihydro-1H-pyrazolo[4,3-c]pyridin-1-yl)-4-(3-fluoroazetidin-1-yl)cyclohexyl)acetonitrile] | 2.23 | 9.07
N#CC[C@]1(n2nc(Nc3ccc(S(=O)(=O)C(F)F)cc3)c3c(=O)[nH]ccc32)CC[C@H](N2CC(F)C2)CC1 [Example 18-28, Trans 2-(1-(3-((4-((difluoromethyl)sulfonyl)phenyl)amino)-4-oxo-4,5-dihydro-1H-pyrazolo[4,3-c]pyridin-1-yl)-4-(3-fluoroazetidin-1-yl)cyclohexyl)acetonitrile] | 0.05 | 0.11
CN1Cc2cc(Nc3nn([C@]4(CC#N)CC[C@H](N5CC(F)C5)CC4)c4cc[nH]c(=O)c34)ccc2S1(=O)=O [Example 18-31] | 1.81 | 16.9
CN1Cc2cc(Nc3nn([C@]4(CC#N)CC[C@@H](N5CC(F)C5)CC4)c4cc[nH]c(=O)c34)ccc2S1(=O)=O [Example 18-32] | 0.04 | 0.09
CN1Cc2cc(Nc3nn([C@]4(CC#N)CC[C@@H](N(C)C)CC4)c4cc[nH]c(=O)c34)ccc2S1(=O)=O [Example 18-34, Trans 2-(4-(Dimethylamino)-1-(3-((2-methyl-1,1-dioxido-2,3-dihydrobenzo-[d]isothiazol-6-yl)amino)-4-oxo-4,5-dihydro-1H-pyrazolo[4,3-c]pyridin-1-yl)cyclohexyl)acetonitrile] | 1.07 | 12.1
CC(C)(C)N1Cc2cc(Nc3nn([C@]4(CC#N)CC[C@@H](N5CC(F)C5)CC4)c4cc[nH]c(=O)c34)ccc2S1(=O)=O [Example 18-35] | 0.21 | 0.21
CC(C)(C)N1Cc2cc(Nc3nn([C@]4(CC#N)CC[C@H](N5CC(F)C5)CC4)c4cc[nH]c(=O)c34)ccc2S1(=O)=O [Example 18-36] | 0.83 | 6.85
CN(C)[C@H]1CC[C@](CC#N)(n2nc(Nc3ccc4c(c3)CN(C(C)(C)C)S4(=O)=O)c3c(=O)[nH]ccc32)CC1 [Example 18-37, Trans 2-(1-(3-((2-(tert-butyl)-1,1-dioxido-2,3-dihydrobenzo[d]isothiazol-5-yl)amino)-4-oxo-4,5-dihydro-1H-pyrazolo[4,3-c]pyridin-1-yl)-4-(dimethylamino)cyclohexyl)acetonitrile] | 0.23 | 4.43
CN(C)[C@H]1CC[C@@](CC#N)(n2nc(Nc3ccc4c(c3)CN(C(C)(C)C)S4(=O)=O)c3c(=O)[nH]ccc32)CC1 [Example 18-38, Cis 2-(1-(3-((2-(tert-butyl)-1,1-dioxido-2,3-dihydrobenzo[d]isothiazol-5-yl)amino)-4-oxo-4,5-dihydro-1H-pyrazolo[4,3-c]pyridin-1-yl)-4-(dimethylamino)cyclohexyl)acetonitrile] | 16.1 | 211
CN(C)S(=O)(=O)c1ccc(Nc2nn(C3(CC#N)CCC(=O)CC3)c3cc[nH]c(=O)c23)cc1 [Example 18-39, 4-((1-(1-(cyanomethyl)-4-oxocyclohexyl)-4-oxo-4,5-dihydro-1H-pyrazolo[4,3-c]pyridin-3-yl)amino)-N,N-dimethylbenzenesulfonamide] | 1.37 | 1.78
CC(C)(C)NC(=O)[C@@H]1CC[C@@](CC#N)(n2nc(Nc3ccc4c(c3)CN(C(C)(C)C)S4(=O)=O)c3c(=O)[nH]ccc32)CO1 [Example 19-1, (2S,5S)-N-(tert-butyl)-5-(3-((2-(tert-butyl)-1,1-dioxido-2,3-dihydrobenzo[d]isothiazol-5-yl)amino)-4-oxo-4,5-dihydro-1H-pyrazolo[4,3-c]pyridin-1-yl)-5-(cyanomethyl)tetrahydro-2H-pyran-2-carboxamide] | 0.08 | 1.94
CN(C(=O)[C@@H]1CC[C@@](CC#N)(n2nc(Nc3ccc4c(c3)CN(C(C)(C)C)S4(=O)=O)c3c(=O)[nH]ccc32)CO1)C(C)(C)C [Example 19-2, (2S,5S)-N-tert-butyl-5-{3-[(2-tert-butyl-1,1-dioxido-2,3-dihydro-1,2-benzisothiazol-5-yl)amino]-4-oxo-4,5-dihydro-1H-pyrazolo[4,3-c]pyridin-1-yl}-5-(cyanomethyl)-N-methyltetrahydro-2H-pyran-2-carboxamide] | 0.1 | 2.07
CC(C)OC(=O)[C@@H]1CC[C@@](CC#N)(n2nc(Nc3ccc4c(c3)CN(C(C)(C)C)S4(=O)=O)c3c(=O)[nH]ccc32)CO1 [Example 19-3, (2S,5S)-isopropyl 5-(3-((2-(tert-butyl)-1,1-dioxido-2,3-dihydrobenzo[d]isothiazol-5-yl)amino)-4-oxo-4,5-dihydro-1H-pyrazolo[4,3-c]pyridin-1-yl)-5-(cyanomethyl)tetrahydro-2H-pyran-2-carboxylate] | 0.04 | 0.06
Cc1cc(Nc2nn([C@]3(CC#N)CCCOC3)c3cc[nH]c(=O)c23)ccc1C(=O)N1CCCC[C@@H]1C [Example 20-2, 2-((S)-3-(3-((3-methyl-4-((S)-2-methylpiperidine-1-carbonyl)phenyl)amino)-4-oxo-4,5-dihydro-1H-pyrazolo[4,3-c]pyridin-1-yl)tetrahydro-2H-pyran-3-yl)acetonitrile] | 0.43 | 0.62
Cc1cc(Nc2nn([C@]3(CC#N)CCCOC3)c3cc[nH]c(=O)c23)ccc1C(=O)N1CCCC[C@H]1C [Example 20-3, 2-((S)-3-(3-((3-methyl-4-((R)-2-methylpiperidine-1-carbonyl)phenyl)amino)-4-oxo-4,5-dihydro-1H-pyrazolo[4,3-c]pyridin-1-yl)tetrahydro-2H-pyran-3-yl)acetonitrile] | 0.65 | 0.83
Cc1cc(Nc2nn([C@]3(CC#N)CCCOC3)c3cc[nH]c(=O)c23)ccc1C(=O)N1CCC(C)(O)CC1 [Example 20-4, (S)-2-(3-(3-((4-(4-hydroxy-4-methylpiperidine-1-carbonyl)-3-methylphenyl)amino)-4-oxo-4,5-dihydro-1H-pyrazolo[4,3-c]pyridin-1-yl)tetrahydro-2H-pyran-3-yl)acetonitrile] | 0.35 | 0.88
Cc1cc(Nc2nn([C@]3(CC#N)CC[C@@H](C(=O)OC(C)(C)C)OC3)c3cc[nH]c(=O)c23)ccc1C(=O)N1CCOCC1 [Example 20-5, (2S,5S)-tert-butyl 5-(cyanomethyl)-5-(3-((3-methyl-4-(morpholine-4-carbonyl)phenyl)amino)-4-oxo-4,5-dihydro-1H-pyrazolo[4,3-c]pyridin-1-yl)tetrahydro-2H-pyran-2-carboxylate] | 0.13 | 0.19
Cc1cc(Nc2nn([C@]3(CC#N)CC[C@@H](C(=O)OC(C)(C)C)OC3)c3cc[nH]c(=O)c23)ccc1C(=O)N1CCCC1 [Example 20-7, (2S,5S)-tert-butyl 5-(cyanomethyl)-5-(3-((3-methyl-4-(pyrrolidine-1-carbonyl)phenyl)amino)-4-oxo-4,5-dihydro-1H-pyrazolo[4,3-c]pyridin-1-yl)tetrahydro-2H-pyran-2-carboxylate] | 0.09 | 0.36
CCN(CC(F)(F)F)C(=O)c1ccc(Nc2nn([C@]3(CC#N)CC[C@@H](C(=O)OC(C)(C)C)OC3)c3cc[nH]c(=O)c23)cc1C [Example 20-14, (2S,5S)-tert-butyl 5-(cyanomethyl)-5-(3-((4-(ethyl(2,2,2-trifluoroethyl)carbamoyl)-3-methylphenyl)amino)-4-oxo-4,5-dihydro-1H-pyrazolo[4,3-c]pyridin-1-yl)tetrahydro-2H-pyran-2-carboxylate] | 0.28 | 0.51
